Assay results from patent US20190367520A1, “NEW COMPOUND HAVING FGFR INHIBITORY ACTIVITY AND PREPARATION AND APPLICATION THEREOF” (SHANGHAI INSTITUTE OF MATERIA MEDICA, CHINESE ACADEMY OF …, priority 2016, published 2019).

How the values were obtained:
[1] = test system: human lung cancer NCI-H1581 transplanted tumor; assay: Growth of transplanted tumor of human lung cancer NCI-H1581 in nude mice; assay type: in vivo, nude mouse; settings: for T/C (%) relative tumor proliferation rate: d14; for body weight change of the animals / tumor volume change of the animals: po, 14 days
Experimental: The tumor tissue in the vigorous growth period was cut into about 1.5 mm^3, and inoculated subcutaneously in the right axilla of nude mouse under aseptic conditions. The diameter of transplanted subcutaneously tumor in the nude mouse was measured with a vernier caliper. The mice were randomly divided into groups after the tumor was grown to an average volume of about 90 mm 3. The compound No. 12 obtained in Example 12 was orally administered once a day at a dose of 100 mg/kg and 20 mg/kg, respectively, for 14 days, and the growth inhibition effects of compound NO. 12 on subcutaneously transplanted tumor in human lung cancer NCI-H1581 nude mouse were measured.
In the solvent control group, an equal amount of physiological saline was given. During the entire experiment, the diameter of the transplanted tumor was measured twice a week, and the body weight of the mice was weighed. The tumor volume (TV) is calculated as: TV=½×a×b^2, where a and b represent length and width, respectively. According to the measured results, the relative tumor volume (RTV) was calculated as: RTV=Vt/V0, wherein V0 was the tumor volume measured when the mouse was administered in cage (i.e. d0), Vt was the tumor volume at each measurement.
On the day of the end of the experiment, 2 hours after administration, blood samples and tumor tissues of each group were collected and preserved.

[2] = molecular target: FGFR1 kinase domain recombinant protein (Homo sapiens, UniProt P11362); assay: FGFR1 enzyme activity at molecular level (ELISA, Poly(Glu,Tyr) 4:1 substrate)
Experimental: (§1) The plate was placed at 37° C. for 12-16 hours. The liquid in the well was discarded, the plate was washed, and the panel was washed three times with 200 μL/well of T-PBS (PBS containing 0.1% Tween-20) for 5 minutes each time.
(§2) 50 μL of ATP solution diluted with reaction buffer (50 mM HEPES pH 7.4, 50 mM MgCl2, 0.5 mM MnCl2, 0.2 mM Na3VO4, 1 mM DTT) was added to each well to a final concentration of 5 μM. The compound was diluted to a suitable concentration in DMSO, 1 μL/well or containing the corresponding concentration of DMSO (negative control well), and the FGFR1, FGFR4 kinase domain recombinant protein diluted in 49 μL of reaction buffer was added to initiate the reaction. Two control wells without ATP were required for each experiment. The reaction was carried out for 1 hour at 37° C. on a shaker (100 rpm). The plate was washed three times with T-PBS. Primary antibody, PY99 dilution was added at 100 μL/well and shaken at 37° C. for 0.5 hour. The plate was washed three times with T-PBS. Secondary antibody, horseradish peroxidase-labeled goat anti-mouse IgG dilution was added at 100 μL/well, and shaken at 37° C. for 0.5 hour. […] (Ultrasound was required for the dissolution of OPD, and the chromogenic solution needed to be prepared when used). 2 M H2SO4 was added at 50 μL/well to quench the reaction and a tunable wavelength microplate reader SPECTRA MAX 190 was used at a wavelength of 490 nm.
(§3) The inhibition rate of the sample was obtained by the following formula:
(§4) The IC50 value was obtained by four-parameter regression using the software attached to the microplate reader.

[3] = molecular target: FGFR4 kinase domain recombinant protein (Homo sapiens, UniProt P22455); assay: FGFR4 enzyme activity at molecular level (ELISA, Poly(Glu,Tyr) 4:1 substrate)
Experimental: as §1, §2, §3, §4

[4] = molecular target: EGFR (Homo sapiens, UniProt P00533); assay: Inhibitory activity on EGFR enzyme activity; assay type: biochemical
EGFR, sequence (P00533 25-1210, species assumed): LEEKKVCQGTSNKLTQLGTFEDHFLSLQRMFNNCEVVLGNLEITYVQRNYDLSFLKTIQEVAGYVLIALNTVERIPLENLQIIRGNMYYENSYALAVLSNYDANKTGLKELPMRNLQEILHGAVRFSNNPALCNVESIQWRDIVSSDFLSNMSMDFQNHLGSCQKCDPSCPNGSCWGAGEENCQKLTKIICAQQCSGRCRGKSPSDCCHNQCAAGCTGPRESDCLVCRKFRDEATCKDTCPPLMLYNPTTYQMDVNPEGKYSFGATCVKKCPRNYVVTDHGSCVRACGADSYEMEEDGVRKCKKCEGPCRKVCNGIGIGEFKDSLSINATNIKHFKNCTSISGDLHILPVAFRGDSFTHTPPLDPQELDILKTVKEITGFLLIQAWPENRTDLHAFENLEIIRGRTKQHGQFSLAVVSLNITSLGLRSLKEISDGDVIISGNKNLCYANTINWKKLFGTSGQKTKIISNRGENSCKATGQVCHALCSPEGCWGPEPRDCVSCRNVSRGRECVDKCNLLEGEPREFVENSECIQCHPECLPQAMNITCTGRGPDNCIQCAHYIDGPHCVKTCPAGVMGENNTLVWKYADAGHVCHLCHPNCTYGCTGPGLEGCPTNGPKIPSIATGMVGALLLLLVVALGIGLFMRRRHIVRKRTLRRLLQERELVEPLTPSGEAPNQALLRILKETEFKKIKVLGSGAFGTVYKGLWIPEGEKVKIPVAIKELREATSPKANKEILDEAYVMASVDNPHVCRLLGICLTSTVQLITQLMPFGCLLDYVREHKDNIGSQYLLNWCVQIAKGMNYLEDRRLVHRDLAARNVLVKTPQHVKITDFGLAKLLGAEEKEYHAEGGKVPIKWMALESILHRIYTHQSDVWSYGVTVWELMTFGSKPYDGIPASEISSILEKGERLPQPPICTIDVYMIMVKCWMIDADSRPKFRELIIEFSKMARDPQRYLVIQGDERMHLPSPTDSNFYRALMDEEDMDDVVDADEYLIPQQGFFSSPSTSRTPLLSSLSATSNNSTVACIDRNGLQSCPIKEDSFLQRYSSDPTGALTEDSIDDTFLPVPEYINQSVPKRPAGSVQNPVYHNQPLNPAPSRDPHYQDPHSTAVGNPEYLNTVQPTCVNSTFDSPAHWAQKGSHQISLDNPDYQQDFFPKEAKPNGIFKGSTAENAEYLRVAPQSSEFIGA

FGFR4 kinase domain recombinant protein, sequence (P22455 467-755 limits assumed): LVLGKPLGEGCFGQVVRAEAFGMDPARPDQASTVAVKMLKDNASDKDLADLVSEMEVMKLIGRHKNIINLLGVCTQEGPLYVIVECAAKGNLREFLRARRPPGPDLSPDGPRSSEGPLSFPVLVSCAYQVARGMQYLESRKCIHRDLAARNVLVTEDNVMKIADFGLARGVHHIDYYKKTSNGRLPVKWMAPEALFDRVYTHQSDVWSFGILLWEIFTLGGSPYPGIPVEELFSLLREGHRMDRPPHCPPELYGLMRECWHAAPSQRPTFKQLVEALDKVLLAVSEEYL
FGFR1 kinase domain recombinant protein, sequence (P11362 478-767 limits assumed): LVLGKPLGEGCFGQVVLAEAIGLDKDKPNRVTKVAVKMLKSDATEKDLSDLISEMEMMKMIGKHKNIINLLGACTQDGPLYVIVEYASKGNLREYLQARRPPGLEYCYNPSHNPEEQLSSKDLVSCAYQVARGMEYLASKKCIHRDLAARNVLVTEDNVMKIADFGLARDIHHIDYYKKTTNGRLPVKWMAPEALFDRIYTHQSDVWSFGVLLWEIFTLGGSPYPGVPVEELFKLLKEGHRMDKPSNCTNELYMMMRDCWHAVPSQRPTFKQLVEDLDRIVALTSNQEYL

Q: How did the “T/C (%) relative tumor proliferation rate” value ([1]; 20 mg/kg qd/14 po) turn out when C=CC(=O)N1CC[C@H](n2cc(-c3cc4cc(C)cc(OC)c4s3)c3c(N)ncnc32)C1 [NO. 12, (S)-1-(3-(4-amino-5-(7-methoxy-5-methylbenzothiophene-2-yl)-7H-pyrrole[2,3-d]pyrimidine-7-yl)pyrrolidine-1-yl)prop-2-en-1-one] was run?
A: Its value is 31.28%.

Q: What about the “body weight change of the animals” value ([1]; 20 mg/kg) of the same molecule?
A: The value was 24.2%.

Q: And the “tumor volume change of the animals” value ([1]; 20 mg/kg)?
A: The value was 1500%.

Q: And the “T/C (%) relative tumor proliferation rate” value ([1]; 100 mg/kg qd/14 po)?
A: The value was 2.9%.

Q: And the “body weight change of the animals” value ([1]; 100 mg/kg)?
A: The value was −5.9%.

Q: What about the “tumor volume change of the animals” value ([1]; 100 mg/kg) of the same molecule?
A: Its value is 54.8%.

Q: And the IC50 [2]?
A: The IC50 was < 10 nM.

Q: And the IC50 [3]?
A: Its IC50 is < 10 nM.

Q: And the IC50 [4]?
A: Its IC50 is > 1000 nM.

Q: What about the “EGFR inhibitory activity (in words)” value ([4]; conclusion from Table 3) of the same molecule?
A: The value was “substantially no EGFR inhibitory activity”.
